Source: publication PMC8359458 (British Journal of Clinical Pharmacology, 2021)
Read-outs that look alike come from different tables or passages of the source.

Assays:
[1] = format: in vivo, human; conditions: for AUC / Cmax: geometric mean (CV%); for Tmax: median (min‐max); for half-life: arithmetic mean (SD)
CYP3A4 [2] = conditions: cited from earlier work
CYP3A [3] = test: Cocktail DDI study: effect of zanubrutinib on CYP3A probe midazolam; format: in vivo, human
CYP2C19 [4] = test: Cocktail DDI study: effect of zanubrutinib on CYP2C19 probe omeprazole; format: in vivo, human
BCRP = test: Cocktail DDI study: effect of zanubrutinib on BCRP probe rosuvastatin; format: in vivo, human; conditions: rosuvastatin with/without zanubrutinib 160 mg b.i.d.
CYP2C19 [5] = conditions: human liver microsomes, reversible inhibition; cited from earlier work
CYP2B6 [6] = test: CYP mRNA induction in human hepatocytes; format: in vitro ADME; conditions: according to FDA guidance, in vitro
Safety analyses = format: in vivo, human; conditions: for incidence of TEAEs: 17 subjects
OAT3 = conditions: concentrations up to 5.0 μM; cited from earlier work
CYP2C9 [7] = conditions: human liver microsomes, reversible inhibition; cited from earlier work
CYP2B6 [8] = conditions: at 3 and 30 μM, human hepatocytes; cited from earlier work
CYP3A [9] = conditions: at 3 and 30 μM, human hepatocytes; cited from earlier work
[10] = tested on: organic cation transporter (OCT) 2; conditions: concentrations up to 5.0 μM; cited from earlier work
OATP1B1 = conditions: concentrations up to 5.0 μM; cited from earlier work
[11] = Plasma PK of zanubrutinib alone and with omeprazole 20 mg; format: in vivo; conditions: male, human, oral
[12] = cited from earlier work
[13] = oral, patients with B‐cell malignancies; cited from earlier work
[14] = tested on: breast cancer resistance protein (BCRP); test: In vitro transporter inhibition; format: in vitro ADME; conditions: 160 mg zanubrutinib b.i.d.; FDA cutoff 10
[15] = tested on: organic anion transporter (OAT) 1; conditions: concentrations up to 5.0 μM; cited from earlier work
CYP2C9 [16] = conditions: at 3 and 30 μM, human hepatocytes; cited from earlier work
CYP2C8 [17] = conditions: human liver microsomes, reversible inhibition; cited from earlier work
OATP1B3 = conditions: concentrations up to 5.0 μM; cited from earlier work
CYP2C8 [18] = conditions: at 3 and 30 μM, human hepatocytes; cited from earlier work
P‐glycoprotein (P‐gp) [19] = test: In vitro transporter inhibition; format: in vitro ADME; conditions: 160 mg zanubrutinib b.i.d.; FDA cutoff 10
P‐glycoprotein (P‐gp) [20] = conditions: concentrations up to 10.0 μM; cited from earlier work
[21] = tested on: breast cancer resistance protein (BCRP); conditions: concentrations up to 5.0 μM; cited from earlier work
CYP3A4/5 = conditions: cited from earlier work
CYP3A4 [22] = conditions: co‐administration with rifampicin; cited from earlier work
[23] = male, human, plasma, oral, AUC0‐t, probe drugs + zanubrutinib 160 mg b.i.d.
[24] = male, human, plasma, oral, Cmax, probe drugs + zanubrutinib 160 mg b.i.d.
[25] = male, human, plasma, oral, AUC0‐∞, probe drugs + zanubrutinib 160 mg b.i.d.
[26] = male, human, plasma, oral, AUC0‐∞, probe drugs only
[27] = male, human, plasma, oral, Cmax, probe drugs only
[28] = male, human, plasma, oral, t1/2, probe drugs only
[29] = probe drugs + zanubrutinib 160 mg b.i.d.
[30] = midazolam with/without zanubrutinib 160 mg b.i.d.
[31] = omeprazole with/without zanubrutinib 160 mg b.i.d.

Structure (SMILES): C[C@H]1O[C@@H](O[C@H]2[C@@H](O)C[C@H](O[C@H]3[C@@H](O)C[C@H](O[C@H]4CC[C@@]5(C)[C@H](CC[C@@H]6[C@@H]5C[C@@H](O)[C@]5(C)[C@@H](C7=CC(=O)OC7)CC[C@]65O)C4)O[C@@H]3C)O[C@@H]2C)C[C@H](O)[C@@H]1O [Digoxin, digoxin]
- AUC ([1]; male, human, plasma, oral, 0.25 mg, AUC0‐t, probe drugs only): 6.54 ng·h/mL
- AUC [1, 23]: 7.28 ng·h/mL
- Cmax [1, 24]: 1.56 ng/mL
- Tmax ([1]; probe drugs only): 1.00 (0.500–2.00) h

Structure (SMILES): Cc1ncc2n1-c1ccc(Cl)cc1C(c1ccccc1F)=NC2 [Midazolam, midazolam]
- within‐subject variation in Cmax and AUC ([1]; in vivo): ≤ 17.6%
- AUC [1, 23]: 14.3 ng·h/mL
- AUC [1, 25]: 15 ng·h/mL
- AUC [1, 26]: 28.2 ng·h/mL
- Cmax [1, 24]: 7.12 ng/mL
- Cmax [1, 27]: 10.2 ng/mL
- half-life [1, 28]: 4.87 h
- Tmax [1, 29]: 0.500 (0.500–1.00) h
- mean AUC ratio of midazolam with and without rifampin (CYP3A4 [2]; 7 days of rifampin dosing): 0.12
- mean AUC ratio of midazolam with and without rifampin (CYP3A4 [2]; 14 days of rifampin dosing): 0.11
- mean changes (decrease) to AUC0‐t, AUC0‐∞ and Cmax (CYP3A [3]; co‐administration of zanubrutinib): less than 50%
- Ratio of GLSM, AUC0‐t (CYP3A [3]; [30]): 52.52%
- Ratio of GLSM, AUC0‐∞ (CYP3A [3]; [30]): 52.58%
- Ratio of GLSM, Cmax (CYP3A [3]; [30]): 70.17%

Structure (SMILES): COc1ccc2[nH]c([S+]([O-])Cc3ncc(C)c(OC)c3C)nc2c1 (stereo not drawn) [Omeprazole, omeprazole]
- within‐subject variation in AUC ([1]; in vivo): 15%
- within‐subject variation in Cmax ([1]; in vivo): 35%
- AUC [1, 23]: 282 ng·h/mL
- Cmax [1, 24]: 182 ng/mL
- Cmax [1, 27]: 229 ng/mL
- Tmax ([1]; probe drugs only): 2.00 (1.00–8.00) h
- mean AUC0‐t lower with zanubrutinib co‐administration (CYP2C19 [4]; in vivo): approximately 36%
- mean Cmax lower with zanubrutinib co‐administration (CYP2C19 [4]; in vivo): ~21%
- Ratio of GLSM, AUC0‐t (CYP2C19 [4]; [31]): 63.52%
- Ratio of GLSM, Cmax (CYP2C19 [4]; [31]): 79.5%

Structure (SMILES): CC(C)c1nc(N(C)S(C)(=O)=O)nc(-c2ccc(F)cc2)c1/C=C/[C@@H](O)C[C@@H](O)CC(=O)O [Rosuvastatin, rosuvastatin]
- within‐subject variation in Cmax and AUC ([1]; in vivo): ≤ 27.5%
- AUC [1, 23]: 32.9 ng·h/mL
- AUC [1, 25]: 34.4 ng·h/mL
- AUC [1, 26]: 41 ng·h/mL
- Cmax [1, 24]: 3.75 ng/mL
- Cmax [1, 27]: 3.47 ng/mL
- half-life ([1]; male, human, plasma, oral, t1/2, probe drugs + zanubrutinib 160 mg b.i.d.): 11.2 h
- half-life [1, 28]: 12.9 h
- Tmax [1, 29]: 3.00 (1.50–4.05) h
- Ratio of GLSM, AUC0‐t (BCRP): 89.45%
- Ratio of GLSM, AUC0‐∞ (BCRP): 89.29%
- Ratio of GLSM, Cmax (BCRP): 108%

Structure (SMILES): CC(=O)C[C@@H](c1ccccc1)c1c(O)c2ccccc2oc1=O [S‐warfarin]
- Cmax [1, 29]: 666 (22.2) ng/mL
- Tmax [1, 29]: 1.00 (0.500–2.00) h
- Cmax ([1]; probe drugs only): 698 (14.9) ng/mL
- Tmax ([1]; probe drugs only): 1.00 (0.500–4.00) h

Structure (SMILES): C=CC(=O)N1CCC([C@@H]2CCNc3c(C(N)=O)c(-c4ccc(Oc5ccccc5)cc4)nn32)CC1 [Zanubrutinib, zanubrutinib]
- R3 value for induction (CYP2B6 [6]): 0.55
- tolerability (Safety analyses; 160 mg b.i.d. alone or co‐administered with probe drugs): generally well tolerated
- incidence of TEAEs (Safety analyses; probe drugs plus zanubrutinib): 11.8%
- incidence of TEAEs (Safety analyses; zanubrutinib only): 11.8%
- inhibition of transporter (OAT3): nor a significant inhibitor
- increase in mRNA (CYP2B6 [8]): ≥ 2 fold
- increase in mRNA (CYP3A [9]): ≥ 2 fold
- inhibition of transporter [10]: nor a significant inhibitor
- inhibition of transporter (OATP1B1): nor a significant inhibitor
- Cmax ([11]; 20 mg): 233 ng/mL
- Tmax ([11]; 20 mg): 2 h
- half-life ([11]; 20 mg): 2.93 h
- AUC ([11]; 20 mg, AUC0‐t, with omeprazole 20 mg (Day 18), n = 17, geometric mean (CV%)): 1070 ng·h/mL
- AUC ([11]; 20 mg, AUC0‐τ, with omeprazole 20 mg (Day 18), τ = 12 h, n = 16, geometric mean (CV%)): 1080 ng·h/mL
- Cmax ([11]; 160 mg twice daily): 231 ng/mL
- half-life ([11]; 160 mg twice daily): 2.7 h
- AUC ([11]; 160 mg twice daily, AUC0‐τ, zanubrutinib only (Day 13), τ = 12 h, n = 16, geometric mean (CV%)): 1050 ng·h/mL
- AUC ([11]; 160 mg, AUC0‐t, zanubrutinib 160 mg b.i.d. only (Day 13), n = 17, geometric mean (CV%)): 1030 ng·h/mL
- solubility [12]: pH‐dependent solubility
- mean apparent terminal elimination half‐life (t1/2) [13]: 2 to 4 h
- inhibition of transporter [15]: nor a significant inhibitor
- increase in mRNA (CYP2C9 [16]): ≥ 2 fold
- inhibition of transporter (OATP1B3): nor a significant inhibitor
- increase in mRNA (CYP2C8 [18]): ≥ 2 fold
- inhibition of transporter (P‐glycoprotein (P‐gp) [20]): neither a significant inhibitor
- inhibition of transporter [21]: nor a significant inhibitor

Structure (SMILES): COc1ccc(-n2nc(C(N)=O)c3c2C(=O)N(c2ccc(N4CCCCC4=O)cc2)CC3)cc1 [apixaban]
- fraction metabolized by CYP3A4/5 (CYP3A4/5): 15%

Structure (SMILES): O=C(NC[C@H]1CN(c2ccc(N3CCOCC3=O)cc2)C(=O)O1)c1ccc(Cl)s1 [rivaroxaban]
- fraction metabolized by CYP3A4/5 (CYP3A4/5): ~ 18%
- decrease in mean AUC (CYP3A4 [22]): ~50%
